In US9771326B2, “S1P and/or ATX modulating agents” (BIOGEN MA INC., priority 2012, dated 2017):

What follows are compounds tested against S1P3 (Homo sapiens, UniProt Q99500) (assay: S1P receptor calcium flux assay, agonist format (S1P3)). Conditions: FLIPR TETRA.
Format: cell-based
Excerpt: (§1) S1P Receptor Activity Assays Agonist percentage activation determinations were obtained by assaying sample compounds and referencing the Emax control for each receptor profiled. Antagonist percentage inhibition determinations were obtained by assaying sample compounds and referencing the control EC80 wells for each receptor profiled. The samples were run using a “Single Addition” assay protocol for the agonist and antagonist assay run. The protocol design was as follows: Compound Preparation Master stock solution: Unless specified otherwise, all sample compounds were diluted in 100% anhydrous DMSO including all serial dilutions. All control wells contained identical solvent final concentrations as did the sample compound wells. Compound plate for assay: The sample compounds were transferred from a master stock solution into a daughter plate that was used in the assay. Each sample compound was diluted into assay buffer (1×HBSS with 20 mM HEPES and 2.5 mM Probenecid) at an appropriate concentration to obtain final concentrations. […] Assay was read for 180 seconds using the FLIPR^TETRA (This assay run added sample compounds and reference agonist to respective wells). […] Once baseline corrections were processed, maximum fluorescence values were exported and data manipulated to calculate percentage activation, percentage inhibition and Z′.

S1P3, sequence (Q99500 whole entry): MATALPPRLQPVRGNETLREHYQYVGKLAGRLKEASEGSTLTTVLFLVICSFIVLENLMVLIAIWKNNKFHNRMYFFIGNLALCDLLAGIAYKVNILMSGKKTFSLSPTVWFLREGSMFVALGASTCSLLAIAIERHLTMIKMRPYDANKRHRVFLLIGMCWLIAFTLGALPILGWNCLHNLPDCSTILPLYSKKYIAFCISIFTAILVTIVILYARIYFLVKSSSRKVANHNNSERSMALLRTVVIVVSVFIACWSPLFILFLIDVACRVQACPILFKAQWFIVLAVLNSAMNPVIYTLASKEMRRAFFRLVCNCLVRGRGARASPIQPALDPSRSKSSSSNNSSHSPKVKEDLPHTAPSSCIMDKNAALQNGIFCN

EC50 [µM]	Compound
0.05 to 5	CC(C)(C)[C@H]1CC[C@H](Oc2cnc(-c3cccc(CNCCC(=O)O)c3)nc2)CC1 [Example 50, 3-(3-(5-(trans-4-tert-Butylcyclohexyloxy)pyrimidin-2-yl)benzylamino)propanoic acid]

These compounds were tested on A2B5+ OPCs (assay: OPC differentiation assay). Conditions: 72 h; rat OPCs in CNTF/T3 media, 3-day incubation, MSD analysis; read-out: positive in the OPC assay (concentration).
Format: cell-based, Sprague Dawley rats
Procedure: OPC Differentiation Assay
Enriched populations of oligodendrocytes were grown from post-natal day 2 (P2) female Sprague Dawley rats. The forebrain was dissected out and placed in Hank's buffered saline solution (HBSS; Invitrogen, Grand Island, N.Y.). The tissue was cut into 1 mm fragments and incubated at 37° C. for 15 minutes in 0.01% trypsin and 10 μg/mL DNase. Dissociated cells were plated on poly-L-lysine-coated T75 tissue culture flasks and grown at 37° C. for 10 days in Dulbecco's modified Eagle's medium (DMEM) with 20% fetal calf serum (Invitrogen). A2B5^+ OPCs were collected by shaking the flask overnight at 200 rpm and 37° C., resulting in a 95% pure population.
For the differentiation assay, 2 μM and 20 μM antagonist or the same concentrations of vehicle (DMSO) were applied to OPCs cultured in CNTF/T3 containing media. After a 3-day incubation, after a 3-day incubation, cell were lysed and then subjected to MSD (Meso Scale Discovery-R) analysis. EC50 was calculated by Prism using a nonlinear sigmoidal dose-response curve cells. Alternatively, cells were lysed in 80 μL lysis buffer (50 mM HEPES [4-(2-hydroxyethyl)-1-piperazine ethanesulfonic acid], pH 7.5, 150 mM NaCl, 1.5 mM MgCl2, 1 mM ethylene glycol tetraacetic acid [EGTA], 1% Triton X-100 and 10% glycerol) for 30 minutes at 4° C. After centrifugation at 14,000 g for 15 minutes, the supernatants were boiled in Laemmli sample buffer, subjected to 4-20% SDS-PAGE, and analyzed by Western blotting with anti-MBP, anti-myelin-associated glycoprotein (MAG), or anti-beta actin antibodies. The secondary antibodies used were anti-mouse IgG-HRP (horseradish peroxidase) and anti-rabbit IgG-HRP respectively.

Compound	minimal effective concentration [µM]
CC(C)(C)[C@H]1CC[C@H](Oc2ccc(-c3cccc(CNCCC(=O)O)c3F)cc2)CC1 [Example 95]	0.5 to 5
O=C(O)C1CCN(Cc2cccc(-c3ccc(OC4CCC5(CCCC5)CC4)cc3)c2F)C1 (centres unmarked) [Example 114, 1-((2-fluoro-4′-(spiro[4.5]decan-8-yloxy)-[1,1′-biphenyl]-3-yl)methyl)pyrrolidine-3-carboxylic acid]	0.5 to 5
CC(C)(C)[C@H]1CC[C@H](Oc2ccc(-c3csc(CNCCC(=O)O)n3)cc2)CC1 [Example 62, 3-(((4-(4-((trans-4-(tert-Butyl)cyclohexyl)oxy)phenyl)thiazol-2-yl)methyl)amino)propanoic acid]	0.5 to 5
O=C(O)C1CCN(Cc2cccc(-c3ccc(OC4CCC5(CCC5)CC4)cc3)c2F)C1 (centres unmarked) [Example 106, 1-((2-fluoro-4′-(spiro[3.5]nonan-7-yloxy)-[1,1′-biphenyl]-3-yl)methyl)pyrrolidine-3-carboxylic acid]	0.5 to 5
CC(C)[C@H]1CC[C@H](Oc2ccc(-c3cccc(CN4CCC(C(=O)O)CC4)c3F)cc2)CC1 [Example 140, 1-((2-fluoro-4′-(((1r,4r)-4-isopropylcyclohexyl)oxy)-[1,1′-biphenyl]-3-yl)methyl)piperidine-4-carboxylic acid]	0.5 to 5
CC(C)[C@H]1CC[C@H](Oc2ccc(-c3cccc(CN4CCCC(C(=O)O)C4)c3F)cc2)CC1 (some centres unmarked) [Example 139, 1-((2-fluoro-4′-(((1r,4r)-4-isopropylcyclohexyl)oxy)-[1,1′-biphenyl]-3-yl)methyl)piperidine-3-carboxylic acid]	0.5 to 5
CC(C)(C)[C@H]1CC[C@H](Oc2ccc(-c3ccc(CNCCC(=O)O)cc3)cc2)CC1 [Example 24, 3-((4′-(trans-4-tert-Butylcyclohexyloxy)biphenyl-4-yl)methylamino)propanoic acid]	0.5 to 5
O=C(O)C1CCCN(Cc2cccc(-c3ccc(OC4CCC5(CCCC5)CC4)cc3)c2F)C1 (centres unmarked) [Example 115, 1-((2-fluoro-4′-(spiro[4.5]decan-8-yloxy)-[1,1′-biphenyl]-3-yl)methyl)piperidine-3-carboxylic acid]	0.5 to 5
CC(C)(C)[C@H]1CC[C@H](Oc2ccc(-c3cccc(CNC4CC(C(=O)O)C4)c3)cc2)CC1 (stereo partly drawn) [Example 10, 3-(((4′-((trans-4-(tert-Butyl)cyclohexyl)oxy)-[1,1′-biphenyl]-3-yl)methyl)amino)cyclobutanecarboxylic acid]	0.5 to 5
CC(C)(C)[C@H]1CC[C@H](Oc2ccc(-n3cc(CN4CCC(C(=O)O)CC4)nn3)cc2)CC1 [Example 93, 1-((1-(4-(trans-4-tert-Butylcyclohexyloxy)phenyl)-1H-1,2,3-triazol-4-yl)methyl)piperidine-4-carboxylic acid]	0.5 to 5
CC(C)[C@H]1CC[C@H](Oc2ccc(-c3cccc(CN4CCC(C(=O)O)C4)c3F)cc2)CC1 (some centres unmarked) [Example 138, 1-((2-fluoro-4′-(((1r,4r)-4-isopropylcyclohexyl)oxy)-[1,1′-biphenyl]-3-yl)methyl)pyrrolidine-3-carboxylic acid]	0.5 to 5
CC(C)(C)[C@H]1CC[C@H](Oc2cccc(-c3cccc(CNCCC(=O)O)c3)c2)CC1 [Example 4, 3-(((3′-((trans-4-(tert-Butyl)cyclohexyl)oxy)-[1,1′-biphenyl]-3-yl)methyl)amino)propanoic acid]	0.5 to 5

Each compound was assayed against T1, S1P4 (Homo sapiens, UniProt O95977) (assay: S1P receptor calcium flux assay, agonist format (S1P4)). Conditions: FLIPR TETRA.
T1 sequence (O95977 1-384): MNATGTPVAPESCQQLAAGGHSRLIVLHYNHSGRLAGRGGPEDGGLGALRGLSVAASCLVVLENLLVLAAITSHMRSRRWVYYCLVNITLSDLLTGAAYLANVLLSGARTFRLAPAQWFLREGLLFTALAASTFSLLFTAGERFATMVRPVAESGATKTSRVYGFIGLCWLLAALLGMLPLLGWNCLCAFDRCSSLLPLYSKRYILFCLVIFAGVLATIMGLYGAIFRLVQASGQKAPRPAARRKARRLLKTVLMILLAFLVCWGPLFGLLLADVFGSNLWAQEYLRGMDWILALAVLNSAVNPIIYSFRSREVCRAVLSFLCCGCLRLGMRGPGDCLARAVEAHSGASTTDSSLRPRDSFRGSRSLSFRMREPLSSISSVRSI
Format: cell-based
Excerpt: as §1

S1P4 agonist activity EC50 [µM]	Compound
0.001 to 5	CC(C)(C)[C@H]1CC[C@H](n2nc(-c3cccc(CNCCC(=O)O)c3)ccc2=O)CC1 [Example 48, 3-((3-(1-(trans-4-(tert-butyl)cyclohexyl)-6-oxo-1,6-dihydropyridazin-3-yl)benzyl)amino)propanoic acid]
